Laboratory results taken from ChEMBL document CHEMBL1201862, “PubChem BioAssay data set” (2004).
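Assay format: 96-well plates, 48-hour exposure. GI50: concentration for 50% inhibition of growth.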 The source made the active and inactive calls. Rule as the data show it: active = GI50 up to about 1.1 µM and inactive = higher.

Experiments:
Assay in all cases: inhibition of tumour cell growth, NCI panel, 48 h
SF-268 = test system: SF-268
DMS-114 = test system: DMS-114
IGROV-1 = test system: IGROV-1
TK-10 = test system: TK-10
DMS-273 = test system: DMS-273
SN12C = test system: SN12C
SR = test system: SR
M14 = test system: M14
NCI-H522 = test system: NCI-H522
LXFL 529 = test system: LXFL 529
SK-OV-3 = test system: SK-OV-3
A549 = test system: A549
KM-20L2 = test system: KM-20L2
UACC-257 = test system: UACC-257
RXF 393 = test system: RXF 393
NCI-H23 = test system: NCI-H23
SNB-78 = test system: SNB-78
M19-MEL = test system: M19-MEL
CAKI-1 = test system: CAKI-1
OVCAR-8 = test system: OVCAR-8
SNB-75 = test system: SNB-75
ACHN = test system: ACHN
SW-620 = test system: SW-620
SF-539 = test system: SF-539
SNB-19 = test system: SNB-19
HOP-92 = test system: HOP-92
SK-MEL-28 = test system: SK-MEL-28
SK-MEL-2 = test system: SK-MEL-2
RXF 631 = test system: RXF 631
NCI-H460 = test system: NCI-H460
HT-29 = test system: HT-29
MOLT-4 = test system: MOLT-4
KM12 = test system: KM12
HCT-116 = test system: HCT-116
RPMI-8226 = test system: RPMI-8226
U-251 = test system: U-251
HOP-62 = test system: HOP-62
OVCAR-4 = test system: OVCAR-4
UACC-62 = test system: UACC-62
SF-295 = test system: SF-295
UO-31 = test system: UO-31
786-0 = test system: 786-0
HL-60 = test system: HL-60
CCRF-CEM = test system: CCRF-CEM
DLD-1 = test system: DLD-1
OVCAR-3 = test system: OVCAR-3
A498 = test system: A498
HCT-15 = test system: HCT-15
EKVX = test system: EKVX
Malme-3M = test system: Malme-3M
COLO 205 = test system: COLO 205
NCI-H226 = test system: NCI-H226
OVCAR-5 = test system: OVCAR-5
HOP-18 = test system: HOP-18
SK-MEL-5 = test system: SK-MEL-5
LOX IMVI = test system: LOX IMVI
XF498 = test system: XF498
K562 = test system: K562
HCC 2998 = test system: HCC 2998

Cc1cc(C)c(C(=O)c2no[n+]([O-])c2C(=O)c2c(C)cc(C)c(Br)c2C)c(C)c1Br
GI50 (SF-268): 11.5 µM (inactive) | GI50 (DMS-114): 10.8 µM (inactive) | GI50 (IGROV-1): 6.15 µM (inactive) | GI50 (TK-10): 9.31 µM (inactive) | GI50 (DMS-273): 18.5 µM (inactive) | GI50 (SN12C): 14.2 µM (inactive) | GI50 (SR): 4.27 µM (inactive) | GI50 (M14): 11.8 µM (inactive) | GI50 (NCI-H522): 10.9 µM (inactive) | GI50 (LXFL 529): 11.2 µM (inactive) | GI50 (SK-OV-3): 20.7 µM (inactive) | GI50 (A549): 13.8 µM (inactive) | GI50 (KM-20L2): 16.2 µM (inactive) | GI50 (UACC-257): > 10 µM (inactive) | GI50 (RXF 393): 6.05 µM (inactive) | GI50 (NCI-H23): 11.5 µM (inactive) | GI50 (SNB-78): 18.6 µM (inactive) | GI50 (M19-MEL): 12.6 µM (inactive) | GI50 (CAKI-1): 11.4 µM (inactive) | GI50 (OVCAR-8): 10.9 µM (inactive) | GI50 (SNB-75): 9.31 µM (inactive) | GI50 (ACHN): 12.6 µM (inactive) | GI50 (SW-620): 12.9 µM (inactive) | GI50 (SF-539): 15.5 µM (inactive) | GI50 (SNB-19): 15.7 µM (inactive) | GI50 (HOP-92): 6.19 µM (inactive) | GI50 (SK-MEL-28): 14.4 µM (inactive) | GI50 (SK-MEL-2): 14.1 µM (inactive) | GI50 (RXF 631): 13.6 µM (inactive) | GI50 (NCI-H460): 14.2 µM (inactive) | GI50 (HT-29): 12.3 µM (inactive) | GI50 (MOLT-4): 4.65 µM (inactive) | GI50 (KM12): 13.6 µM (inactive) | GI50 (HCT-116): 10.2 µM (inactive) | GI50 (RPMI-8226): 10.2 µM (inactive) | GI50 (U-251): 12.5 µM (inactive) | GI50 (HOP-62): 18.2 µM (inactive) | GI50 (OVCAR-4): 10.2 µM (inactive) | GI50 (UACC-62): 10.7 µM (inactive) | GI50 (SF-295): 16.9 µM (inactive) | GI50 (UO-31): 7.67 µM (inactive) | GI50 (786-0): 15.1 µM (inactive) | GI50 (HL-60): 3.35 µM (inactive) | GI50 (CCRF-CEM): 2.59 µM (inactive) | GI50 (DLD-1): 14.2 µM (inactive) | GI50 (OVCAR-3): 13.6 µM (inactive) | GI50 (A498): 17.6 µM (inactive) | GI50 (HCT-15): 13.5 µM | GI50 (EKVX): 12 µM (inactive) | GI50 (Malme-3M): 14 µM (inactive) | GI50 (COLO 205): 16.8 µM (inactive) | GI50 (NCI-H226): 16.1 µM (inactive) | GI50 (OVCAR-5): 16 µM (inactive)

N#CCCN(CCC#N)c1ccc(/C=C(\NC(=O)c2cc([N+](=O)[O-])ccc2Cl)C(=O)Nc2ccccc2)cc1
GI50 (SF-268): 30.8 µM (inactive) | GI50 (DMS-114): 55 µM (inactive) | GI50 (HOP-18): > 100 µM (inactive) | GI50 (IGROV-1): > 100 µM (inactive) | GI50 (TK-10): 48 µM (inactive) | GI50 (DMS-273): 54.2 µM (inactive) | GI50 (SN12C): > 100 µM (inactive) | GI50 (SR): 36.3 µM (inactive) | GI50 (NCI-H522): 44.2 µM (inactive) | GI50 (LXFL 529): 10.5 µM (inactive) | GI50 (SK-OV-3): > 100 µM (inactive) | GI50 (A549): > 100 µM (inactive) | GI50 (KM-20L2): > 100 µM (inactive) | GI50 (RXF 393): > 100 µM (inactive) | GI50 (NCI-H23): > 100 µM (inactive) | GI50 (SNB-78): > 100 µM (inactive) | GI50 (M19-MEL): > 100 µM (inactive) | GI50 (CAKI-1): 62.1 µM (inactive) | GI50 (OVCAR-8): 83.9 µM (inactive) | GI50 (ACHN): 12.2 µM (inactive) | GI50 (SF-539): 49.7 µM (inactive) | GI50 (SK-MEL-5): > 100 µM (inactive) | GI50 (SNB-19): > 100 µM (inactive) | GI50 (HOP-92): > 100 µM (inactive) | GI50 (SK-MEL-28): > 100 µM (inactive) | GI50 (SK-MEL-2): > 100 µM (inactive) | GI50 (MOLT-4): 32.2 µM (inactive) | GI50 (KM12): > 100 µM (inactive) | GI50 (HCT-116): 78.7 µM (inactive) | GI50 (RPMI-8226): > 100 µM (inactive) | GI50 (U-251): > 100 µM (inactive) | GI50 (HOP-62): 45.2 µM (inactive) | GI50 (OVCAR-4): > 100 µM (inactive) | GI50 (LOX IMVI): 21.4 µM (inactive) | GI50 (UACC-62): 4.52 µM (inactive) | GI50 (SF-295): 64.6 µM (inactive) | GI50 (UO-31): > 100 µM (inactive) | GI50 (CCRF-CEM): 5.87 µM (inactive) | GI50 (XF498): > 100 µM (inactive) | GI50 (DLD-1): 18.5 µM (inactive) | GI50 (OVCAR-3): > 100 µM (inactive) | GI50 (K562): 6.82 µM (inactive) | GI50 (HCT-15): 4.55 µM | GI50 (EKVX): > 100 µM (inactive) | GI50 (COLO 205): 67.9 µM (inactive) | GI50 (NCI-H226): 64.9 µM (inactive) | GI50 (OVCAR-5): 99.8 µM (inactive)

CN(C)c1ccc(/C=C/c2ccc(/C=C/c3ccc(N(C)C)cc3)cc2)cc1
GI50 (SF-268): > 100 µM (inactive) | GI50 (HOP-18): > 100 µM (inactive) | GI50 (IGROV-1): > 100 µM (inactive) | GI50 (TK-10): > 100 µM (inactive) | GI50 (DMS-273): > 100 µM (inactive) | GI50 (SN12C): > 100 µM (inactive) | GI50 (M14): > 100 µM (inactive) | GI50 (NCI-H522): > 100 µM (inactive) | GI50 (LXFL 529): 75.9 µM (inactive) | GI50 (SK-OV-3): > 100 µM (inactive) | GI50 (A549): 95.9 µM (inactive) | GI50 (KM-20L2): > 100 µM (inactive) | GI50 (UACC-257): 90.4 µM (inactive) | GI50 (HCC 2998): > 100 µM (inactive) | GI50 (RXF 393): > 100 µM (inactive) | GI50 (NCI-H23): 94.6 µM (inactive) | GI50 (SNB-78): > 100 µM (inactive) | GI50 (M19-MEL): > 100 µM (inactive) | GI50 (CAKI-1): > 100 µM (inactive) | GI50 (OVCAR-8): > 100 µM (inactive) | GI50 (SNB-75): > 100 µM (inactive) | GI50 (ACHN): 57.8 µM (inactive) | GI50 (SW-620): > 100 µM (inactive) | GI50 (SF-539): > 100 µM (inactive) | GI50 (SK-MEL-5): 35.1 µM (inactive) | GI50 (SNB-19): 78.5 µM (inactive) | GI50 (HOP-92): 92.5 µM (inactive) | GI50 (SK-MEL-28): > 100 µM (inactive) | GI50 (SK-MEL-2): > 100 µM (inactive) | GI50 (RXF 631): > 100 µM (inactive) | GI50 (NCI-H460): > 100 µM (inactive) | GI50 (HT-29): > 100 µM (inactive) | GI50 (MOLT-4): > 100 µM (inactive) | GI50 (KM12): > 100 µM (inactive) | GI50 (HCT-116): 83.9 µM (inactive) | GI50 (RPMI-8226): 63.8 µM (inactive) | GI50 (U-251): > 100 µM (inactive) | GI50 (OVCAR-4): > 100 µM (inactive) | GI50 (LOX IMVI): > 100 µM (inactive) | GI50 (UACC-62): 87.3 µM (inactive) | GI50 (SF-295): 89.1 µM (inactive) | GI50 (UO-31): 41.2 µM (inactive) | GI50 (786-0): > 100 µM (inactive) | GI50 (HL-60): > 100 µM (inactive) | GI50 (CCRF-CEM): > 100 µM (inactive) | GI50 (DLD-1): 33.6 µM (inactive) | GI50 (OVCAR-3): > 100 µM (inactive) | GI50 (K562): 75.5 µM (inactive) | GI50 (A498): > 100 µM (inactive) | GI50 (HCT-15): > 100 µM | GI50 (EKVX): > 100 µM (inactive) | GI50 (Malme-3M): 13 µM (inactive) | GI50 (COLO 205): > 100 µM (inactive) | GI50 (NCI-H226): 81.8 µM (inactive) | GI50 (OVCAR-5): > 100 µM (inactive)
